Data reported in patent US11672803B2, “Use of inhibitors of Brutons tyrosine kinase (Btk)” (priority 2010, dated 2023).

Legend:
[1] = system: individuals with mantle cell lymphoma; assay: Absolute lymphocyte count vs cycle day in individuals with mantle cell lymphoma; assay type: in vivo, human
Description: Patients 32006, 38003, and 38004 were treated on schedule of 4 weeks on treatment followed by one week off. Thus, day 1 of each cycle follows one week off drug for these patients. The other patients were treated with continuous daily dosing.

individuals with DLBCL = assay: Absolute lymphocyte count vs cycle day in individuals with DLBCL; assay type: in vivo, human; conditions: PD individuals, FIG. 11
Description: Patient 38011 was treated on schedule of 4 weeks on treatment followed by one week off. Thus, day 1 of each cycle follows one week off drug for this patient. Patients 38008 and 324001 were treated with continuous daily doses.
All Patients were treated on schedule of 4 weeks on treatment followed by one week off. Thus, day 1 of each cycle follows one week off drug for these patients. […] Patient 32002 received only one cycle of treatment.

DoHH2 cells = assay: Alamar blue assay in DoHH2 cells; assay type: cell-based; conditions: DLBCL cell line from a transformed follicular lymphoma patient
Source text: DOHH2 is a DLBCL (diffuse large B-cell lymphoma) cell line, from a transformed follicular lymphoma patient.
Assay was an alamar blue assay.

[2] = system: individuals with follicular lymphoma; assay: Absolute lymphocyte count / B cell mobilization vs cycle day in individuals with follicular lymphoma; assay type: in vivo, human
Description: All Patients (except Pt 32009) were treated on schedule of 4 weeks on treatment followed by one week off. Thus, day 1 of each cycle follows one week off drug for these patients.
All Patients were treated on schedule of 4 weeks on treatment followed by one week off. Thus, day 1 of each cycle follows one week off drug for these patients.
All Patients except 38010 were treated on schedule of 4 weeks on treatment followed by one week off. Thus, day 1 of each cycle follows one week off drug for these patients.

Question: Which results are given for `C=CC(=O)N1CCC[C@@H](n2nc(-c3ccc(Oc4ccccc4)cc3)c3c(N)ncnc32)C1` [Btk inhibitor, (R)-1-(3-(4-amino-3-(4-phenoxyphenyl)-1H-pyrazolo[3,4-d]pyrimidin-1-yl)piperidin-1-yl)prop-2-en-1-one]?
Answer: Lymphocyte mobilization (ALC) ([1]; patient with initial PD (32014), FIG. 12): failed to show mobilization; Lymphocyte mobilization (ALC) ([1]; responding patients, FIG. 13): all responding patients showed some degree of mobilization; Lymphocyte mobilization (ALC) (individuals with DLBCL): lack of mobilization for 3 of the 4 patients; Sensitivity of DOHH2 cell line (DoHH2 cells): moderately sensitive; B cell fraction change by cycle ([2]; Patient 32007, Cohort 4, follicular lymphoma grade 3, regressed from SD to CR, FIG. 14): characteristic cyclic increases; Lymphocyte mobilization (ALC) ([2]; follicular lymphoma, PD individuals, FIG. 9): lack of mobilization; Absolute lymphocyte count (ALC) change by cycle ([2]; follicular lymphoma, complete or partial response (CR/PR), 4 weeks on, 1 week off, FIG. 7): increases of ALC during most cycles of most patients
